Results from patent US20190125896A1, “ANTI-INFECTIVE COMPOSITIONS COMPRISING PHYTOGLYCOGEN NANOPARTICLES” (MIREXUS BIOTECHNOLOGIES INC., priority 2016, published 2019).
Values after ≈ are worked out from the molar mass of the structure shown.

Experiments:
[1] = system: P. aeruginosa PAO1 biofilm; experiment: Biofilm formation at sub-MIC tobramycin; assay type: cell-based, Pseudomonas aeruginosa; conditions: non-supplemented medium
Method: The potential for cationized phytoglycogen to limit enhanced biofilm formation at sub-MIC concentrations of the aminoglycoside tobramycin was assessed in sterile 96 well polystyrene plates. P. aeruginosa PAO1 stocks were revived by sub-culturing P. aeruginosa PAO1 in Mueller-Hinton broth (Oxoid; Fisher Scientific, Canada) and grown for 20-22 h (37° C., 150 rpm). Sterile solutions of gamma-irradiated cationized phytoglycogen was prepared by reconstitution and dilution as required in sterile Mueller-Hinton broth. […] The inoculum was prepared immediately prior to use by diluting in sterile Mueller-Hinton broth, with a final in-assay cell density of 5×10^5 CFU.ml^−1. Plates were incubated statically at 37° C. At 20 h, biofilms were stained and quantitated according to the previously described protocol (Example 23). Experiments were done in quadruplicate replicate and repeated three times (n=12).

[2] = system: P. aeruginosa PAO1 biofilm; experiment: Biofilm eradication: 20 h biofilms treated with antibiotic and cationized phytoglycogen; assay type: cell-based, Pseudomonas aeruginosa; conditions: 24 h, medium alone
Method: Biofilm growth and treatments were performed in sterile 96 well polystyrene plates. Sterile solutions of gamma-irradiated cationized phytoglycogen was prepared by reconstitution and dilution as required in sterile Mueller-Hinton broth. P. aeruginosa PAO1 stocks were revived by sub-culturing P. aeruginosa PAO1 (37° C., 150 rpm, 16-18 h) in Mueller-Hinton broth (Oxoid; Fisher Scientific, Canada). The inoculum was prepared immediately prior to use by diluting in sterile Mueller-Hinton broth to a final in-assay cell density of 5×10^5 CFU.ml^−1. 100 μl of this solution was transferred to wells and incubated (37° C., 150 rpm). Sterile broth was the negative growth control. At 20 h, plates were transferred to a biological safety cabinet, well contents were gently aspirated and the wells rinsed with sterile 0.9% (wt/vol) NaCl. […] Positive growth controls contained inoculated medium, non-supplemented or with 1 or 10 mg cationized phytoglycogen.ml^−1. Plates were incubated at 37° C. for a further 24 h, after which biofilms were quantitated as previously described. Experiments were done in quadruplicate replicate and repeated three times (n=12).

[3] = system: P. aeruginosa PAO1; experiment: Sensitization to antibiotics: MIC in medium supplemented with phytoglycogen; assay type: cell-based, Pseudomonas aeruginosa; conditions: P. aeruginosa
Method: MIC assays as defined in Example 15 were performed in sterile and untreated 96 well microtitre plates according to the broth micro-dilution technique described in either the Clinical and Laboratory Standards Institute document M07-A9: Methods for Dilution Antimicrobial Susceptibility Tests for Bacteria that Grow Aerobically; Approved Standard and document M27-A2 Reference Method for Broth Dilution Antifungal Susceptibility Testing of Yeasts; Approved Standard—Second Edition, with the exception that, where indicated, medium was additionally supplemented with native or cationized phytoglycogen. Assessments done using C. utilis ATCC9950, B. subtilis 168 and E. coli AB264 employed native or cationized phytoglycogen at concentrations ⅛, ¼, ½ their respective MIC values for cationized phytoglycogen. Assessments of the opportunistic pathogen P. aeruginosa PAO1 were made at final in-assay concentrations of 0.5, 1 or 10 mg native or cationized phytoglycogen.ml^−1. Experiments were performed as in-assay duplicates, and were repeated a minimum of three times (n=6).
MIC assays were performed in duplicate within each experiment and were repeated a minimum three times to confirm the data (n=6). MIC values with a four-fold or greater change relative to the non-supplemented medium MIC represent a statistically-significant change in MIC value. Only those antibiotic-cationized phytoglycogen combinations which caused a four-fold change relative to the non-supplemented medium MIC were deemed as indicative of resulting in potentiation (MIC value was less), or tolerance (MIC value increased).

[4] = system: Pseudomonas aeruginosa PAO1; experiment: MIC broth micro-dilution; assay type: cell-based; conditions: P. aeruginosa PAO1, Mueller-Hinton broth, read-out: MIC value established empirically
Method: Minimum inhibitory concentration (MIC) assays were done to evaluate antibacterial properties of cationized phytoglycogen. The MIC is defined as “the lowest concentration of an anti-infective agent that prevents visible growth of a micro-organism in an agar or broth dilution susceptibility test”.
MIC assessments against bacteria were performed following broth micro-dilution in accordance with the Clinical and Laboratory Standards Institute document M07-A9: Methods for Dilution Antimicrobial Susceptibility Tests for Bacteria that Grow Aerobically; Approved Standard. A Gram-positive organism, Bacillus subtilis 168, and two Gram-negative organisms, Escherichia coli AB264 (K-12) and Pseudomonas aeruginosa PAO1 were assessed. Long-term stock cultures of organisms were maintained at −80° C. in glycerol (15% vol/vol). Stocks were revived by sub-culturing onto trypticase soy agar plates, grown for 18 hrs at 37° C. and then stored at 4° C. for up to one week. Overnight cultures were grown by inoculating Mueller-Hinton broth with 3-4 colonies from stock plates and incubating for 20-24 hrs at 37° C. and 150 rpm. […] Plates were incubated at 37° C. for 20 h, at which points wells were scored for growth. […] Cationized phytoglycogen, prepared according to the alternative procedure detailed in Example 3, was also assessed in double-dilution increments from 19 to 10 000 μg.ml^−1. […]

Compound: NC[C@H]1O[C@H](O[C@H]2[C@H](O)[C@@H](O[C@H]3O[C@H](CO)[C@@H](O)[C@H](N)[C@H]3O)[C@H](N)C[C@@H]2N)[C@H](N)C[C@@H]1O [tobramycin]
- factor of biofilm accumulation relative to the medium only control ([1]; tobramycin at % -MIC): 1.5
- factor of biofilm accumulation relative to the medium only control ([1]; tobramycin at ¼-MIC): 1.33
- factor of biofilm accumulation relative to the medium only control ([1]; tobramycin at ½-MIC): > 2.00
- change in biofilm of 20 h biofilms ([2]; 0.125 to 2 times the MIC): net increase in biofilm proliferation
- reduction of biofilm relative to the initial biofilm ([2]; four-fold the MIC): 40%
- ↓ Fold-change in MIC (cationized phytoglycogen) MIC.5 mg/ml ([3]; 0.5 mg cationized phytoglycogen · ml^−1 Mueller-Hinton Broth): 2 fold
- ↓ Fold-change in MIC (cationized phytoglycogen) MIC1 mg/ml ([3]; 1 mg cationized phytoglycogen · ml^−1 Mueller-Hinton Broth): 2 fold
- ↓ Fold-change in MIC (cationized phytoglycogen) MIC10 mg/ml ([3]; 10 mg cationized phytoglycogen · ml^−1 Mueller-Hinton Broth): 1 fold
- MIC ([3]; Pseudomonas aeruginosa, PAO1, non-supplemented Mueller-Hinton Broth, read-out: MIC): 0.25 µg/mL
- MIC [4]: 0.4 µg/mL (≈ 0.856 µM)
